Laboratory results published in US11608325B2, “Polycrystalline form of dehydrophenylahistin-like compound, and manufacturing and purification method and application thereof” (Shenzhen Huahong Marine Biomedicine Co., Ltd., priority 2016, dated 2023).
Entries after “also recorded” stand apart in the source; their conditions may differ.

Assays:
Format in all cases: physicochemical
[1] = Hygroscopicity test (Chinese Pharmacopoeia 2015 Volume IV, general rule 9103); conditions: for Weight gain: Left for 24 h
Procedure: The test was conducted according to the general rule 9103 of guiding principle for drug hygroscopicity test in Chinese Pharmacopoeia 2015 edition Volume IV, and the results are shown in Table 6.

[2] = High-temperature stress test (60° C.); conditions: for Appearance / Content (HPLC) (calculated as an anhydride) / Relevant substance (HPLC) Impurity D / Relevant substance (HPLC) Total impurities / Relevant substance (HPLC) Impurity A: High-temperature test/60° C.; for Relevant substance (HPLC) Impurity A: LOQ (0.035%); for stability under high-temperature condition: stress testing, high temperature (60° C.)
Procedure: (§1) In accordance with the general rule 9001 of guiding principles for stability tests of APIs and preparations in the Chinese Pharmacopoeia 2015 edition Volume IV, stress testing of the δ-crystalline form of (3Z,6Z)-3-benzylidene-6-[(5-tert-butyl-1H-imidazol-4-yl)deuteromethylene]piperazine-2,5-dione was conducted under high temperature, high humidity and illumination conditions, the sample batch number was 20150401, and the results are shown in Tables 7, 8 and 9 below.

[3] = High-humidity stress test (25° C., 90% RH); conditions: for Appearance / Content (HPLC) (calculated as an anhydride) / Relevant substance Impurity D / Relevant substance Total impurities / Relevant substance Impurity A: High-humidity test/25° C., 90% RH; for Relevant substance Impurity A: LOQ (0.035%); for stability / transformation under high-humidity condition: stress testing, high humidity (25° C., 90% RH), monohydrate
Procedure: as §1

[4] = Illumination stress test (4500 Lx±500 Lx); conditions: for Appearance / Content (HPLC) (calculated as an anhydride) / Relevant substance (HPLC) Impurity D / Relevant substance (HPLC) Total impurities / Relevant substance (HPLC) Impurity A: Illumination test/4500Lx ± 500Lx; for Relevant substance (HPLC) Impurity A: LOQ (0.035%); for stability under illumination condition: stress testing, illumination (4500 Lx±500 Lx), monohydrate
Procedure: as §1

[5] = 6-month accelerated stability test (40° C.±2° C./75%±5% RH)
Procedure: Meanwhile, a 6-month accelerated stability test was conducted on the δ-crystalline form of (3Z,6Z)-3-benzylidene-6-[(5-tert-butyl-1H-imidazol-4-yl)deuteromethylene]piperazine-2,5-dione. The sample batch number was 20150404. Factory packaging was simulated. The test conditions were 40° C.±2° C./75%±5% RH.

[6] = Transformation of other crystalline forms under humidity or in water; conditions: after being stirred in water for 3 hours
[7] = Stability study of plinabulin polymorphs
[8] = listed as 20150401, monohydrate
[9] = listed as 20150402, monohydrate
[10] = listed as 20150403, monohydrate
[11] = listed as (3Z,6Z)-3-benzylidene-6-[(5-tert-butyl-1H-imidazol-4-yl)deuteromethylene]piperaz

O.[2H]/C(c1nc[nH]c1C(C)(C)C)=c1/[nH]c(=O)/c(=C/c2ccccc2)[nH]c1=O [δ-crystalline form, (3Z,6Z)-3-benzylidene-6-[(5-tert-butyl-1H-imidazol-4-yl)deuteromethylene]piperazine-2,5-dione monohydrate]
Weight gain [1, 8]: 0.20 mg | Weight gain [1, 9]: 0.24 mg | Weight gain [1, 10]: 0.20 mg | weight gain percentage ([1]; bottle opened for 24 hours): less than 0.2% | Hygroscopicity [1, 8]: none | Hygroscopicity [1, 9]: none | Hygroscopicity [1, 10]: none | Hygroscopicity ([1]; monohydrate): basically not hygroscopic | Appearance ([2]; day 0): Yellow powder | Content (HPLC) (calculated as an anhydride) ([2]; day 0): 99.7% | Relevant substance (HPLC) Impurity D ([2]; day 0): Impurity D: 0.06% | Relevant substance (HPLC) Total impurities ([2]; day 0): 0.07% | Relevant substance (HPLC) Impurity A ([2]; day 0): Impurity A: <LOQ | Appearance ([2]; day 5): Yellow powder | Content (HPLC) (calculated as an anhydride) ([2]; day 5): 99.4% | Relevant substance (HPLC) Impurity D ([2]; day 5): Impurity D: 0.06% | Relevant substance (HPLC) Total impurities ([2]; day 5): 0.07% | Relevant substance (HPLC) Impurity A ([2]; day 5): Impurity A: <LOQ | Appearance ([2]; day 10): Yellow powder | Content (HPLC) (calculated as an anhydride) ([2]; day 10): 99.8% | Relevant substance (HPLC) Impurity D ([2]; day 10): Impurity D: 0.06% | Relevant substance (HPLC) Total impurities ([2]; day 10): 0.07% | Relevant substance (HPLC) Impurity A ([2]; day 10): Impurity A: <LOQ | stability under high-temperature condition ([2]; listed as (3Z,6Z)-3-benzylidene-6-[(5-tert-butyl-1H-imidazol-4-yl)deuteromethylene]piperaz, monohydrate): remain stable | stability under high-temperature condition ([2]; monohydrate): very stable; also recorded: relatively stable | Appearance ([3]; day 0): Yellow powder | Content (HPLC) (calculated as an anhydride) ([3]; day 0): 99.7% | Relevant substance Impurity D ([3]; day 0): Impurity D: 0.06% | Relevant substance Total impurities ([3]; day 0): 0.07% | Relevant substance Impurity A ([3]; day 0): Impurity A: <LOQ | Appearance ([3]; day 5): Yellow powder | Content (HPLC) (calculated as an anhydride) ([3]; day 5): 99.5% | Relevant substance Impurity D ([3]; day 5): Impurity D: 0.06% | Relevant substance Total impurities ([3]; day 5): 0.07% | Relevant substance Impurity A ([3]; day 5): Impurity A: <LOQ | Appearance ([3]; day 10): Yellow powder | Content (HPLC) (calculated as an anhydride) ([3]; day 10): 99.6% | Relevant substance Impurity D ([3]; day 10): Impurity D: 0.06% | Relevant substance Total impurities ([3]; day 10): 0.07% | Relevant substance Impurity A ([3]; day 10): Impurity A: <LOQ | stability / transformation under high-humidity condition [3, 11]: remain stable | stability / transformation under high-humidity condition [3]: very stable; also recorded: relatively stable | Appearance ([4]; day 0): Yellow powder | Content (HPLC) (calculated as an anhydride) ([4]; day 0): 99.7% | Relevant substance (HPLC) Impurity D ([4]; day 0): Impurity D: 0.06% | Relevant substance (HPLC) Total impurities ([4]; day 0): 0.07% | Relevant substance (HPLC) Impurity A ([4]; day 0): Impurity A: <LOQ | Appearance ([4]; day 5): Yellow powder | Content (HPLC) (calculated as an anhydride) ([4]; day 5): 100.1% | Relevant substance (HPLC) Impurity D ([4]; day 5): Impurity D: 0.05% | Relevant substance (HPLC) Total impurities ([4]; day 5): 0.05% | Relevant substance (HPLC) Impurity A ([4]; day 5): Impurity A: <LOQ | Appearance ([4]; day 10): Yellow powder | Content (HPLC) (calculated as an anhydride) ([4]; day 10): 99.8% | Relevant substance (HPLC) Impurity D ([4]; day 10): Impurity D: 0.05% | Relevant substance (HPLC) Total impurities ([4]; day 10): 0.05% | Relevant substance (HPLC) Impurity A ([4]; day 10): Impurity A: <LOQ | stability under illumination condition [4, 11]: remain stable | stability under illumination condition [4]: very stable; also recorded: relatively stable | stability in accelerated stability test ([5]; 6 months, monohydrate): very stable; also recorded: excellent stability | Content (HPLC) (calculated as an anhydride) ([5]; month 0): 99.5% | Relevant substance (HPLC) Impurity D ([5]; month 0): 0.06% | Relevant substance (HPLC) Other single impurity ([5]; month 0): Not detected | Relevant substance (HPLC) Total impurities ([5]; month 0): 0.07% | Relevant substance (HPLC) Impurity A ([5]; month 0, LOQ (0.035%)): <LOQ | Content (HPLC) (calculated as an anhydride) ([5]; month 1): 99.6% | Relevant substance (HPLC) Impurity D ([5]; month 1): 0.06% | Relevant substance (HPLC) Other single impurity ([5]; month 1): Not detected | Relevant substance (HPLC) Total impurities ([5]; month 1): 0.08% | Relevant substance (HPLC) Impurity A ([5]; month 1, LOQ (0.035%)): <LOQ | Content (HPLC) (calculated as an anhydride) ([5]; month 2): 100.2% | Relevant substance (HPLC) Impurity D ([5]; month 2): 0.06% | Relevant substance (HPLC) Other single impurity ([5]; month 2): Not detected | Relevant substance (HPLC) Total impurities ([5]; month 2): 0.08% | Relevant substance (HPLC) Impurity A ([5]; month 2, LOQ (0.035%)): <LOQ | Content (HPLC) (calculated as an anhydride) ([5]; month 3): 99.8% | Relevant substance (HPLC) Impurity D ([5]; month 3): 0.06% | Relevant substance (HPLC) Other single impurity ([5]; month 3): Not detected | Relevant substance (HPLC) Total impurities ([5]; month 3): 0.08% | Relevant substance (HPLC) Impurity A ([5]; month 3, LOQ (0.035%)): <LOQ | Content (HPLC) (calculated as an anhydride) ([5]; month 6): 99.7% | Relevant substance (HPLC) Impurity D ([5]; month 6): 0.06% | Relevant substance (HPLC) Other single impurity ([5]; month 6): Not detected | Relevant substance (HPLC) Total impurities ([5]; month 6): 0.08% | Relevant substance (HPLC) Impurity A ([5]; month 6, LOQ (0.035%)): <LOQ

CC(C)O.[2H]/C(c1nc[nH]c1C(C)(C)C)=c1/[nH]c(=O)/c(=C/c2ccccc2)[nH]c1=O [ε-crystalline form, (3Z,6Z)-3-benzylidene-6-[(5-tert-butyl-1H-imidazol-4-yl)deuteromethylene]piperazine-2,5-dione monoisopropylate]
stability under high-temperature condition [2]: not stable enough

[2H]/C(c1nc[nH]c1C(C)(C)C)=c1/[nH]c(=O)/c(=C/c2ccccc2)[nH]c1=O [γ-crystalline form, (3Z,6Z)-3-benzylidene-6-[(5-tert-butyl-1H-imidazol-4-yl)deuteromethylene]piperazine-2,5-dione]
Hygroscopicity [1]: no hygroscopicity | stability under high-temperature condition [2]: not stable enough | transformation of crystalline form [6]: most of which may transform into δ-crystalline form

CC(C)(C)c1[nH]cnc1/C=c1\[nH]c(=O)/c(=C/c2ccccc2)[nH]c1=O [a-crystalline form, (3Z,6Z)-3-benzylidene-6-[(5-tert-butyl-1H-imidazol-4-yl)methylene]piperazine-2,5-dione]
Hygroscopicity ([7]; plinabulin crystalline forms): certain hygroscopicity | transformation of crystalline form ([7]; under high humidity condition): easily transformed into a d-crystalline form

[2H]/C(c1nc[nH]c1C(C)(C)C)=c1/[nH]c(=O)/c(=C/c2ccccc2)[nH]c1=O [β-crystalline form, (3Z,6Z)-3-benzylidene-6-[(5-tert-butyl-1H-imidazol-4-yl)deuteromethylene]piperazine-2,5-dione]
Hygroscopicity [1]: no hygroscopicity | stability under high-temperature condition [2]: not stable enough | transformation of crystalline form [6]: most of which may transform into δ-crystalline form

CC(C)(C)c1[nH]cnc1/C=c1\[nH]c(=O)/c(=C/c2ccccc2)[nH]c1=O.O [d-crystalline form, (3Z,6Z)-3-benzylidene-6-[(5-tert-butyl-1H-imidazol-4-yl)methylene]piperazine-2,5-dione monohydrate]
stability [7]: high stability | molecular stability ([7]; during preparation and storage processes): excellent molecular stability | stability as solid API in stress testing ([7]; high temperature, high humidity and illumination conditions): remain stable
